Data from the supplement of paper PMC10307832.

Legend:
Assay in all cases: relative viability (nuclei count vs DMSO), 5 days (fraction); higher = more cells survive
Wnt-C59 + Vorinostat = compound: CC1=NC=CC(=C1)C2=CC=C(C=C2)CC(=O)NC3=CC=C(C=C3)C4=CN=CC=C4 [Wnt-C59] + O=C(CCCCCCC(=O)Nc1ccccc1)NO [Vorinostat] (partner 1 µM)
In short: (§1)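 Values are medians from duplicate plates. Each reflects relative viability, defined as the nuclei count of treated wells over that of vehicle wells. Lung cancer cell lines in 1536-well plates were pin-tool dosed one day after seeding with one drug alone or with a fixed anchor-drug dose plus five library-drug doses (not always all listed) in √10 steps, then fixed, stained and imaged at 4× after 5 days.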

Lapatinib + Decitabine = compound: CS(=O)(=O)CCNCc1ccc(-c2ccc3ncnc(Nc4ccc(OCc5cccc(F)c5)c(Cl)c4)c3c2)o1 [Lapatinib] + Nc1ncn([C@H]2C[C@H](O)[C@@H](CO)O2)c(=O)n1 [Decitabine] (partner 2 µM)
In short: as §1

Lapatinib + Linsitinib = compound: CS(=O)(=O)CCNCc1ccc(-c2ccc3ncnc(Nc4ccc(OCc5cccc(F)c5)c(Cl)c4)c3c2)o1 [Lapatinib] + C[C@]1(O)C[C@@H](c2nc(-c3ccc4ccc(-c5ccccc5)nc4c3)c3c(N)nccn32)C1 [Linsitinib] (partner 1 µM)
In short: as §1

Wnt-C59 + Luminespib = compound: CC1=NC=CC(=C1)C2=CC=C(C=C2)CC(=O)NC3=CC=C(C=C3)C4=CN=CC=C4 [Wnt-C59] + CCNC(=O)c1noc(-c2cc(C(C)C)c(O)cc2O)c1-c1ccc(CN2CCOCC2)cc1 [Luminespib] (partner 0.01 µM)
In short: as §1

**Q.** How did the relative viability (Wnt-C59 + Vorinostat; first compound 0.001 µM) turn out when UMC-11 was run?
**A.** 0.445

**Q.** And the relative viability (Wnt-C59 + Vorinostat; first compound 0.01 µM)?
**A.** 0.418

**Q.** What about the relative viability (Wnt-C59 + Vorinostat; first compound 0.03162 µM) of the same cell line?
**A.** 0.339

**Q.** What about the relative viability (Wnt-C59 + Vorinostat; first compound 0.1 µM) of the same cell line?
**A.** 0.422

**Q.** And the relative viability (Lapatinib + Decitabine; first compound 0.02 µM)?
**A.** 0.493

**Q.** What about the relative viability (Lapatinib + Decitabine; first compound 0.06325 µM) of the same cell line?
**A.** 0.541

**Q.** And the relative viability (Lapatinib + Decitabine; first compound 0.2 µM)?
**A.** 0.627

**Q.** What about the relative viability (Lapatinib + Decitabine; first compound 0.6325 µM) of the same cell line?
**A.** 0.518

**Q.** What about the relative viability (Lapatinib + Decitabine; first compound 2 µM) of the same cell line?
**A.** 0.604

**Q.** And the relative viability (Lapatinib + Linsitinib; first compound 0.02 µM)?
**A.** 1

**Q.** What about the relative viability (Lapatinib + Linsitinib; first compound 0.06325 µM) of the same cell line?
**A.** 0.964

**Q.** And the relative viability (Lapatinib + Linsitinib; first compound 0.2 µM)?
**A.** 1.11

**Q.** And the relative viability (Lapatinib + Linsitinib; first compound 0.6325 µM)?
**A.** 0.985

**Q.** What about the relative viability (Lapatinib + Linsitinib; first compound 2 µM) of the same cell line?
**A.** 1.02

**Q.** And the relative viability (Wnt-C59 + Luminespib; first compound 0.001 µM)?
**A.** 0.932

**Q.** What about the relative viability (Wnt-C59 + Luminespib; first compound 0.01 µM) of the same cell line?
**A.** 1.1

**Q.** And the relative viability (Wnt-C59 + Luminespib; first compound 0.03162 µM)?
**A.** 1.19

**Q.** What about the relative viability (Wnt-C59 + Luminespib; first compound 0.1 µM) of the same cell line?
**A.** 0.979
